The values below come from ChEMBL document CHEMBL1201862, “PubChem BioAssay data set” (2004).

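Protocol summary: plate cells (96-well), add compound at 5 concentrations, incubate 48 h, interpolate endpoints linearly. GI50 = concentration required for 50% inhibition of growth.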 The source made the active and inactive calls. No stated cut-off is given here; in the data, active = GI50 up to about 1.1 µM and inactive = higher.

Among the test systems are TK-10; SW-620; COLO 205; OVCAR-5; U-251; SN12C; IGROV-1; SF-268; SF-295; OVCAR-8; Malme-3M; KM-20L2; NCI-H522; SK-OV-3; ACHN; M14; DU-145; HOP-18; MCF7; PC-3.
Holding throughout (assay): growth of human tumour cells (NCI), 48 h

Take `CN(CCO)/N=N/c1[nH]cnc1C(N)=O`: the GI50 with TK-10 was 49.2 µM (inactive); with SW-620, 69.3 µM (inactive); with COLO 205 it was > 100 µM (inactive); with OVCAR-5, > 100 µM (inactive); with U-251 it was > 100 µM (inactive); with SN12C it was > 100 µM (inactive). Also, the GI50 in the assay on IGROV-1 was > 100 µM (inactive); in the assay on SF-268 it was 84.1 µM (inactive); in the assay on SF-295, 77.8 µM (inactive); with OVCAR-8, 45.7 µM (inactive); with Malme-3M, 52.8 µM (inactive); in the assay on KM-20L2 it was > 100 µM (inactive). Besides, the GI50 in the assay with NCI-H522 was > 100 µM (inactive); in the assay with SK-OV-3, 30.9 µM (inactive); in the assay with ACHN, > 100 µM (inactive); in the assay on M14, 37.8 µM (inactive).
In the case of `O=C(Nc1ccccc1)N1CCN(C(=O)Nc2ccccc2)C1=S`, the GI50 in the assay on DU-145 is > 100 µM (inactive); with TK-10, 38.5 µM (inactive); in the assay on SW-620 it was > 100 µM (inactive); with COLO 205, > 100 µM (inactive); with U-251, > 100 µM (inactive); in the assay on SN12C, 59.3 µM (inactive). Moreover, the GI50 in the assay on IGROV-1 was 49 µM (inactive); in the assay on SF-268, 20 µM (inactive); with SF-295, 23.4 µM (inactive); with OVCAR-8, 34.6 µM (inactive); with Malme-3M it was > 100 µM (inactive); with NCI-H522, 90.2 µM (inactive). Besides, the GI50 with SK-OV-3 is 28.6 µM (inactive); in the assay on ACHN, 8.57 µM (inactive); in the assay on M14 it was 56.4 µM (inactive).
For `COc1cc(C2c3cc4c(cc3[C@@H](Nc3ccccc3)C3COC(=O)[C@H]23)OCO4)cc(OC)c1O` (stereo not given in full), the GI50 in the assay on SW-620 is 0.792 µM (active); in the assay on COLO 205 it was 1.92 µM (inactive); with OVCAR-5 it was 1.86 µM (inactive); in the assay with U-251, 0.391 µM (active); in the assay on SN12C it was 0.485 µM (active); in the assay with IGROV-1 it was 2.21 µM (inactive). In addition, the GI50 in the assay with SF-268 is 1.04 µM (active); in the assay with HOP-18 it was 0.853 µM (active); with SF-295 it was 0.171 µM (active); in the assay with OVCAR-8, 1.18 µM (inactive); in the assay with Malme-3M, 1.41 µM (inactive); in the assay with KM-20L2, 2.1 µM (inactive). The GI50 with NCI-H522 was 1.24 µM (inactive); in the assay on SK-OV-3 it was 0.845 µM (active); in the assay on MCF7, 0.0715 µM (active).
With `COC(=O)/C=C\n1ncc(=O)[nH]c1=O`, the GI50 with DU-145, in the assay with TK-10, in the assay on SW-620, in the assay on COLO 205, in the assay with OVCAR-5 and in the assay on U-251 was > 100 µM (inactive) each time. Also, the GI50 in the assay on SN12C was > 100 µM (inactive); in the assay with IGROV-1, > 100 µM (inactive); with SF-268, > 100 µM (inactive); with OVCAR-8, > 100 µM (inactive); in the assay with Malme-3M, > 100 µM (inactive); with NCI-H522, 52.1 µM (inactive). Moreover, the GI50 in the assay on ACHN, with M14 and in the assay on PC-3 was > 100 µM (inactive) each time.
Regarding `N#CCCN(CCC#N)c1ccc(/C=C(/NC(=O)Nc2ccccc2Cl)NC(=O)c2cc([N+](=O)[O-])ccc2Cl)cc1`, the GI50 with TK-10, with SW-620, with COLO 205, with OVCAR-5, in the assay with U-251 and with SN12C was > 100 µM (inactive) throughout. For the same compound, the GI50 with IGROV-1 was > 100 µM (inactive); with SF-268, > 100 µM (inactive); in the assay with HOP-18, > 100 µM (inactive); in the assay on SF-295 it was > 100 µM (inactive); in the assay with OVCAR-8, 58.5 µM (inactive); in the assay on Malme-3M, > 100 µM (inactive). In addition, the GI50 in the assay with KM-20L2 was > 100 µM (inactive); in the assay with NCI-H522 it was 44.1 µM (inactive); in the assay with SK-OV-3, > 100 µM (inactive); in the assay on ACHN, 42.2 µM (inactive); in the assay on M14, > 100 µM (inactive).
Consider `Nc1nc(SCCC/C=C/I)nc2c1ncn2C1OC(COP(=O)(O)O)C(O)C1O` (stereo not given), for which the GI50 in the assay with TK-10, in the assay with SW-620, with COLO 205, with OVCAR-5, with U-251 and in the assay with SN12C was > 100 µM (inactive) throughout. For the same compound, the GI50 in the assay with IGROV-1, with SF-268, in the assay on SF-295, in the assay with OVCAR-8, in the assay on Malme-3M and with KM-20L2 was > 100 µM (inactive) each time. In addition, the GI50 in the assay on NCI-H522, in the assay with SK-OV-3, in the assay with ACHN and with M14 was > 100 µM (inactive) each time.
As for `CCOC(=O)COc1ccc(OC)c2c1C(=O)CCC2`, the GI50 in the assay with TK-10, with SW-620, with COLO 205, in the assay with U-251, with SN12C and with IGROV-1 was > 100 µM (inactive) throughout. Also, the GI50 in the assay on HOP-18, in the assay on SF-295, with OVCAR-8, in the assay with KM-20L2, in the assay on SK-OV-3 and with ACHN was > 100 µM (inactive) in each case. In the assay on M14, the GI50 is > 100 µM (inactive).
With `C=C(C)C1Cc2c(c3ccccc3n(C)c2=O)O1` (stereo not given), the GI50 in the assay on TK-10, in the assay with SW-620, with COLO 205, with U-251, in the assay on SN12C and in the assay with IGROV-1 was > 100 µM (inactive) each time. Further, the GI50 with SF-268, in the assay with HOP-18, with SF-295, with OVCAR-8, in the assay on Malme-3M and in the assay on KM-20L2 was > 100 µM (inactive) each time. Also, the GI50 in the assay on NCI-H522, in the assay on SK-OV-3, in the assay with ACHN and in the assay on M14 was > 100 µM (inactive) throughout.
For `Cn1c(=O)c2nc(NCCO)cnc2n(C)c1=O`, the GI50 in the assay with TK-10 is > 100 µM (inactive); in the assay with SW-620, 55.6 µM (inactive); with COLO 205, > 100 µM (inactive); in the assay on OVCAR-5 it was > 100 µM (inactive); in the assay with U-251, 32.9 µM (inactive); in the assay on SN12C, > 100 µM (inactive). The GI50 in the assay with IGROV-1 is > 100 µM (inactive); in the assay on SF-268 it was > 100 µM (inactive); in the assay on SF-295 it was 45.3 µM (inactive); with OVCAR-8, > 100 µM (inactive); in the assay with Malme-3M, 44.7 µM (inactive); with KM-20L2, > 100 µM (inactive). Further, the GI50 with NCI-H522 was 21.5 µM (inactive); in the assay with SK-OV-3, > 100 µM (inactive); in the assay with ACHN it was > 100 µM (inactive); with M14 it was 68.2 µM (inactive).
In the case of `CCOC(=O)c1csc(NC(=O)CN2CCN(c3ccccc3)CC2)n1`, the GI50 in the assay on DU-145, in the assay on TK-10, in the assay with SW-620, in the assay on COLO 205, in the assay with OVCAR-5 and with U-251 was > 100 µM (inactive) in each case. Further, the GI50 was 85.9 µM (inactive) with IGROV-1; > 100 µM (inactive) with SF-295; > 100 µM (inactive) in the assay with OVCAR-8; > 100 µM (inactive) in the assay with Malme-3M; > 100 µM (inactive) in the assay with SK-OV-3; > 100 µM (inactive) in the assay on ACHN. The GI50 in the assay with M14, in the assay with PC-3 and in the assay on MCF7 was > 100 µM (inactive) each time.
On to `CC(=O)Nc1ccc(Sc2nnc(NC(C)=O)s2)cc1`, for which the GI50 in the assay with TK-10, in the assay with SW-620, in the assay with COLO 205, with OVCAR-5, in the assay on U-251 and in the assay on SN12C was > 100 µM (inactive) each time. In addition, the GI50 with IGROV-1, with SF-268, in the assay on SF-295, in the assay on OVCAR-8, with NCI-H522 and in the assay with SK-OV-3 was > 100 µM (inactive) each time. In addition, the GI50 with ACHN, in the assay on M14, with PC-3 and with MCF7 was > 100 µM (inactive) in each case.
